Source: patent US10350210B2, “EGFR and ALK dual inhibitor” (PRECEDO PHARMACEUTICALS CO., LTD, priority 2015, dated 2019)

Tests used:
NCI-H3122 = assay: Effect on cell cycle (PI staining, flow cytometer), NCI-H3122; format: cell-based, human; conditions: NCI-H3122 (ALK gene), 24 hours
Source text: (§1) In order to study which growth phase the cell was halted after administration of the drugs, five cell lines including non-small cell lung cancer cell line A549 (expressing wild-type EGFR gene), non-small cell lung cancer cell line H1975 (expressing EGFR L858R/T790M double mutant gene), non-small cell Lung cancer cell line PC-9 (expressing EGFR delE746_A750 mutant gene), non-small cell lung cancer cell line H3255 (expressing EGFR L858R mutant gene) and non-small cell lung cancer cell NCI-H3122 (expressing ALK gene) were tested for effect of Compound 1 on cell cycle distribution. Two cell lines including non-small cell lung cancer cell NCI-H3122 (expressing ALK gene) and non-small cell lung cancer cell H1975 (expressing EGFR L858R/T790M double mutant gene) were tested for effect of Compound 10 on cell cycle distribution. […]

H1975 = assay: Effect on cell cycle (PI staining, flow cytometer), H1975; format: cell-based, human; conditions: H1975 (EGFR L858R/T790M), 24 hours
Source text: as §1

PC-9 = assay: Growth of cancer cells (Cell Titer-Glo viability), PC-9; format: cell-based; conditions: Homo sapiens; PC-9 (EGFR delE746_A750 mutant), 72 hrs
Summary of the method: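 Cells are counted as viable by CellTiter-Glo chemiluminescence. Murine BaF3 lines depend on a stably transfected TEL-fused kinase after IL-3 withdrawal, and the NSCLC lines express mutant EGFR.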

CHL = assay: Cell growth (Cell Titer-Glo viability), CHL; format: cell-based, Chinese hamster; conditions: Cricetulus griseus; CHL Chinese hamster lung cell, 72 hrs; read-out: GI50

GI50 (PC-9) | SMILES | effect on cell cycle distribution (NCI-H3122) | effect on cell cycle distribution (H1975) | GI50 (CHL)
0.0007 µM | C=CC(=O)Nc1cc(Nc2ncc(Cl)c(Nc3ccccc3S(=O)(=O)C(C)C)n2)c(OC)cc1N1CCN(CC)CC1 [Compound 1, N-(5-(5-chloro-4-(2-(isopropylsulfonyl)phenylamino)pyrimidin-2-ylamino)-2-(4-ethylpiperazin-1-yl)-4-methoxyphenyl)acrylamide] | halt the cells in G0-G1 phase | halt the cells in G0-G1 phase | 1.8 µM
0.015 µM | C=CC(=O)Nc1cc(Nc2ncc(Cl)c(Nc3ccccc3S(=O)(=O)C(C)C)n2)c(OC)cc1N1CCCN(C)CC1 [Compound 10, N-(5-(5-chloro-4-(2-(isopropylsulfonyl)phenylamino)pyrimidin-2-ylamino)-4-methoxy-2-(4-methyl-1,4-homopiperazin-1-yl)phenyl)acrylamide] | halt the cells in G0-G1 phase | halt the cells in G0-G1 phase | 3.5 µM
